The structures appear in SMILES notation.

The subject of one data set is female NMRI mice. Briefly: Anorectic action: cumulative evaporated milk consumption after 24 h feed removal. It is filed as in vivo. The following applies: dose 10 mg/kg, i.p. or po (route not specified), compared with control animals. Here is the method:
The anorectic action was tested on female NMRI mice. After removal of feed for 24 hours, the preparation to be tested was administered intraperitoneally (i.p.) or by gavage (po). The animals were housed singly and, with free access to drinking water, they were offered evaporated milk 30 minutes after administration of the preparation. The consumption of evaporated milk was determined and the general behavior of the animals was monitored every half an hour for 7 hours. The measured milk consumption was compared to that of vehicle-treated control animals.

In turn, `CC(=O)OC1c2ccc(Cl)cc2CC1S(C)(=O)=O` (centres unmarked) [Example 1, 1-Acetoxy-5-chloro-2-methylsulfonylindane] showed a melting point of 136 °C. In addition, in the data set on female NMRI mice, the “Reduction in cumulative milk consumption as % of the control” value is listed as 81 % of the control.

The term melting point denotes the temperature of the solid-liquid transition.
